According to PubChem BioAssay AID1918998 (Molecular Pharmacology Branch, DTP, NCI, 2023):
Values belong to the molecule of their own block, whether it stands above or below them.

System: 521955-158-R2-J5-PDC complex spheroid growth
Test: Anticancer human tumor 521955-158-R2-J5-PDC patient-derived pancreatic carcinoma cell line growth inhibition [AhR]
Settings: for IC50: curve of first compound; for viability, T/C: stronger effect = lower value
Text: Multicellular complex tumor spheroid response to aryl hydrocarbon receptor antagonists in combination with a variety of drugs and investigational agents in selected tumor cell lines
The current study was undertaken to assess response to aryl hydrocarbon receptor antagonists in combination with standard-of-care drugs and investigational agents in solid tumor complex spheroid models. Complex spheroids include a stromal component modeled by human endothelial cells (HUVEC) and fibroblasts modeled by human mesenchymal stem cells (MSCs). The concentration ranges selected for each drug and investigational agent were based upon clinically achievable concentrations if the clinical Cmax of the agent was known.
Compounds. The drugs and investigational agents: BAY 2416964 (NSC825713), GNF351 (NSC835774), CH-223191 (NSC835775), CPI-455 (NSC825282), aza-TdCyd (NSC777586), decitabine (NSC127716), belinostat (NSC758774), entinostat (NSC756642), pevonedistat (NSC761192), tazemetostat (NSC777109), talazoparib (NSC765396), olaparib (NSC753686), selinexor (NSC780203), nedisertib (M3814, NSC802822), bortezomib (NSC756655), venetoclax (NSC766270), doxorubicin (NSC123127), elimusertib (BAY189344, NSC800525), ceralasertib (AZD6738, NSC777638), TAK-243 (NSC785004), alisertib (NSC759677), etoposide (NSC141540), topotecan (NSC609699), eribulin (NSC707389), gemcitabine (NSC613327), carboplatin (NSC241240), cisplatin (NSC119875), and SN-38 (NSC673596) were obtained from the National Cancer Institute (NCI) Developmental Therapeutics Program Chemical Repository (32). The FDA-approved anticancer drug set is available from the Developmental Therapeutics Program at https://dtp.cancer.gov/organization/dscb/obtaining/available plates.htm. […] The stock solutions were prepared in dimethyl sulfoxide (DMSO, Sigma-Aldrich, St. Louis, MO, cat. D2650), except for the platinum compounds which were prepared in saline (Quality Biological, Gaithersburg, MD, cat. 114-055-101), at 800-fold the tested concentration and stored at -70 degrees C prior to their use. All drugs and investigational agents were tested over a range starting from a high concentration at or near the clinical Cmax and decreasing in half-log increments. If the clinical Cmax for an agent had not been determined, the highest concentration tested was 10 microM (Table 1).
Cell Culture. All cells were maintained in an incubator at 37 degrees C and 5% CO2 with 95% humidity. The PDC lines were cultured according to standard operating procedures established by the NCI PDMR (https://pdmr.cancer.gov). Briefly, all PDCs were thawed and cultured in Matrigel-coated flasks prepared with a working solution of 1X Ham's F-12 nutrient mix, without supplementation (Invitrogen, Waltham, MA, cat. 11765054), 100 U/mL penicillin-streptomycin (Invitrogen, cat. 15140122), and 2.5% Matrigel (Corning Inc., Corning, NY, cat. 354248) for the first three passages. All PDCs were cultured in complete DMEM/F-12 media containing advanced DMEM/F-12 (Invitrogen, cat. 12634028), 4.9% defined fetal bovine serum, heat inactivated (HyClone Laboratories Inc., Logan, UT, cat. SH30070.03HI), 389 ng/mL hydrocortisone (Sigma-Aldrich, cat. H4001), 9.7 ng/mL human EGF recombinant protein (Invitrogen, cat. PHG0313), 23.4 microg/mL adenine (Sigma-Aldrich, cat. A2786), 97.3 U/mL penicillin-streptomycin (Invitrogen, cat. 15140122), 1.9 mM L-glutamine (Invitrogen, cat. 25030081), and 9.7 microM Y-27632 dihydrochloride (Tocris Bioscience, Bristol, United Kingdom, cat. 1254). The PDCs were cultured in complete DMEM/F12 media without 10 microM Y-27632 dihydrochloride for at least two passages prior to the screen. The established cell lines NCI-H1341 and […] were cultured in DMEM/F-12, HEPES (Invitrogen, cat. 11330032), 5% defined fetal bovine serum (HyClone Laboratories Inc., cat. SH30070.03), ITS premix universal culture supplement [insulin (5 microg/mL), transferrin (5 microg/mL), and selenious acid (5 ng/mL)] […]

[1] = second compound 0.1 µM, first compound 0.00316 µM
[2] = second compound 0.1 µM, first compound 0.01 µM
[3] = second compound 0.1 µM, first compound 0.0316 µM
[4] = second compound 0.1 µM, first compound 0.1 µM
[5] = second compound 0.316 µM, first compound 0.00316 µM
[6] = second compound 0.316 µM, first compound 0.01 µM
[7] = second compound 0.316 µM, first compound 0.0316 µM
[8] = second compound 0.316 µM, first compound 0.1 µM
[9] = second compound 1 µM, first compound 0.00316 µM
[10] = second compound 1 µM, first compound 0.01 µM
[11] = second compound 1 µM, first compound 0.0316 µM
[12] = second compound 1 µM, first compound 0.1 µM
[13] = second compound 3.16 µM, first compound 0.00316 µM
[14] = second compound 3.16 µM, first compound 0.01 µM
[15] = second compound 3.16 µM, first compound 0.0316 µM
[16] = second compound 3.16 µM, first compound 0.1 µM
[17] = second compound 10 µM, first compound 0.00316 µM
[18] = second compound 10 µM, first compound 0.01 µM
[19] = second compound 10 µM, first compound 0.0316 µM
[20] = second compound 10 µM, first compound 0.1 µM
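For viability, T/C in this document: spheroids mix tumor cells with HUVEC endothelium and human MSC stroma; luminescence taken as viability surrogate after a week of drug exposure.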

IC50 (second compound 0.1 µM): > 0.1 µM | IC50 (second compound 0.316 µM): > 0.1 µM | IC50 (second compound 1 µM): > 0.1 µM | IC50 (second compound 3.16 µM): > 0.1 µM | IC50 (second compound 10 µM): > 0.1 µM
Structure (SMILES): Cn1ncnc1C1c2n[nH]c(=O)c3cc(F)cc(c23)NC1c1ccc(F)cc1 (stereo not given) + Cc1ccccc1N=Nc1ccc(NC(=O)c2ccnn2C)c(C)c1
viability, T/C (second compound 0.1 µM, first compound 0.000316 µM): 110% | viability, T/C (second compound 0.1 µM, first compound 0.001 µM): 115% | viability, T/C [1]: 108% | viability, T/C [2]: 103% | viability, T/C [3]: 105% | viability, T/C [4]: 75.4% | viability, T/C (second compound 0.316 µM, first compound 0.000316 µM): 111% | viability, T/C (second compound 0.316 µM, first compound 0.001 µM): 119% | viability, T/C [5]: 108% | viability, T/C [6]: 98.5% | viability, T/C [7]: 97.8% | viability, T/C [8]: 89.1% | viability, T/C (second compound 1 µM, first compound 0.000316 µM): 111% | viability, T/C (second compound 1 µM, first compound 0.001 µM): 107% | viability, T/C [9]: 138% | viability, T/C [10]: 118% | viability, T/C [11]: 118% | viability, T/C [12]: 115% | viability, T/C (second compound 3.16 µM, first compound 0.000316 µM): 140% | viability, T/C (second compound 3.16 µM, first compound 0.001 µM): 150% | viability, T/C [13]: 142% | viability, T/C [14]: 154% | viability, T/C [15]: 128% | viability, T/C [16]: 128% | viability, T/C (second compound 10 µM, first compound 0.000316 µM): 158% | viability, T/C (second compound 10 µM, first compound 0.001 µM): 148% | viability, T/C [17]: 158% | viability, T/C [18]: 146% | viability, T/C [19]: 143% | viability, T/C [20]: 141%

IC50 (second compound 0.1 µM): 0.00438 µM | IC50 (second compound 0.316 µM): 0.00536 µM | IC50 (second compound 1 µM): 0.00434 µM | IC50 (second compound 3.16 µM): 0.00486 µM | IC50 (second compound 10 µM): 0.00416 µM
Structure (SMILES): CC(C)CC(NC(=O)C(Cc1ccccc1)NC(=O)c1cnccn1)B(O)O (stereo not given) + CC(CO)NC(=O)c1cc(-c2ccc(Cl)cc2)nn(-c2cnn(C)c2)c1=O
viability, T/C (second compound 0.1 µM, first compound 0.000949 µM): 78.8% | viability, T/C (second compound 0.1 µM, first compound 0.003 µM): 71.6% | viability, T/C (second compound 0.1 µM, first compound 0.00949 µM): 5.92% | viability, T/C (second compound 0.1 µM, first compound 0.03 µM): 2.45% | viability, T/C (second compound 0.1 µM, first compound 0.0949 µM): 2% | viability, T/C (second compound 0.1 µM, first compound 0.3 µM): 0.19% | viability, T/C (second compound 0.316 µM, first compound 0.000949 µM): 103% | viability, T/C (second compound 0.316 µM, first compound 0.003 µM): 94.7% | viability, T/C (second compound 0.316 µM, first compound 0.00949 µM): 6.1% | viability, T/C (second compound 0.316 µM, first compound 0.03 µM): 1.23% | viability, T/C (second compound 0.316 µM, first compound 0.0949 µM): 0.12% | viability, T/C (second compound 0.316 µM, first compound 0.3 µM): 1.89% | viability, T/C (second compound 1 µM, first compound 0.000949 µM): 113% | viability, T/C (second compound 1 µM, first compound 0.003 µM): 70.6% | viability, T/C (second compound 1 µM, first compound 0.00949 µM): 6.39% | viability, T/C (second compound 1 µM, first compound 0.03 µM): 2.84% | viability, T/C (second compound 1 µM, first compound 0.0949 µM): 0.51% | viability, T/C (second compound 1 µM, first compound 0.3 µM): 0.29% | viability, T/C (second compound 3.16 µM, first compound 0.000949 µM): 83.5% | viability, T/C (second compound 3.16 µM, first compound 0.003 µM): 81.6% | viability, T/C (second compound 3.16 µM, first compound 0.00949 µM): 6.11% | viability, T/C (second compound 3.16 µM, first compound 0.03 µM): 0.25% | viability, T/C (second compound 3.16 µM, first compound 0.0949 µM): 1.98% | viability, T/C (second compound 3.16 µM, first compound 0.3 µM): 1.99% | viability, T/C (second compound 10 µM, first compound 0.000949 µM): 68.2% | viability, T/C (second compound 10 µM, first compound 0.003 µM): 68.3% | viability, T/C (second compound 10 µM, first compound 0.00949 µM): 3.86% | viability, T/C (second compound 10 µM, first compound 0.03 µM): 0.37% | viability, T/C (second compound 10 µM, first compound 0.0949 µM): 0.52% | viability, T/C (second compound 10 µM, first compound 0.3 µM): 1.58%

IC50 (second compound 0.1 µM): 0.936 µM | IC50 (second compound 0.316 µM): > 1 µM | IC50 (second compound 1 µM): > 1 µM | IC50 (second compound 3.16 µM): > 1 µM | IC50 (second compound 10 µM): > 1 µM
Structure (SMILES): Nc1ncn(C2CC(O)C(CO)O2)c(=O)n1 (stereo not given) + Cc1cncc(-c2nc(NCCc3c[nH]c4ccccc34)c3ncn(C(C)C)c3n2)c1
viability, T/C [1]: 92.4% | viability, T/C [2]: 84.2% | viability, T/C [3]: 101% | viability, T/C [4]: 95.4% | viability, T/C (second compound 0.1 µM, first compound 0.316 µM): 79.6% | viability, T/C (second compound 0.1 µM, first compound 1 µM): 48.2% | viability, T/C [5]: 102% | viability, T/C [6]: 99% | viability, T/C [7]: 96.4% | viability, T/C [8]: 82.7% | viability, T/C (second compound 0.316 µM, first compound 0.316 µM): 63.9% | viability, T/C (second compound 0.316 µM, first compound 1 µM): 55.7% | viability, T/C [9]: 112% | viability, T/C [10]: 117% | viability, T/C [11]: 121% | viability, T/C [12]: 93.9% | viability, T/C (second compound 1 µM, first compound 0.316 µM): 82.3% | viability, T/C (second compound 1 µM, first compound 1 µM): 57.5% | viability, T/C [13]: 148% | viability, T/C [14]: 123% | viability, T/C [15]: 145% | viability, T/C [16]: 119% | viability, T/C (second compound 3.16 µM, first compound 0.316 µM): 115% | viability, T/C (second compound 3.16 µM, first compound 1 µM): 79.8% | viability, T/C [17]: 141% | viability, T/C [18]: 110% | viability, T/C [19]: 152% | viability, T/C [20]: 124% | viability, T/C (second compound 10 µM, first compound 0.316 µM): 135% | viability, T/C (second compound 10 µM, first compound 1 µM): 76.1%
